Measurements from US9615577B2, “Herbicidally active cyclic dione compounds, or derivatives therefor, substituted by a phenyl which has an alkynyl-containing substituent” (Syngenta Limited, priority 2012, dated 2017).

Legend:
Assay type in all cases: in vivo
[1] = system: Amarantus retroflexus (AMARE); experiment: Biological Example 2 comparative herbicidal data, post-emergence glasshouse screen; details: Amaranthus retroflexus, read-out: Post-emergence herbicidal activities (percentage phytotoxicity) AMARE; for pest or weed control at 30 g/ha: 30 g/ha application rate
[2] = system: Abutilon theophasti Medik. (ABUTH); experiment: as above; details: read-out: Post-emergence herbicidal activities (percentage phytotoxicity) ABUTH; for pest or weed control at 30 g/ha: 30 g/ha application rate
[3] = system: Alopecurus myosuroides (ALOMY); experiment: as above; details: 312 h, read-out: Post-emergence herbicidal activities (percentage phytotoxicity) ALOMY; for pest or weed control at 30 g/ha: 30 g/ha application rate
Description: (§1) Seeds of a variety of test species were sown in standard soil in pots. After cultivation for one day (pre-emergence) or after 8 days cultivation (post-emergence) under controlled conditions in a glasshouse (at 24/16° C., day/night; 14 hours light; 65% humidity), the plants were sprayed with an aqueous spray solution derived from the formulation of the technical active ingredient in acetone/I water (50:50) solution containing 0.5% Tween 20 (polyoxyethelyene sorbitan monolaurate, CAS RN 9005-64-5). The test plants were then grown in a glasshouse under controlled conditions in a glasshouse (at 24/16° C., day/night; 14 hours light; 65% humidity) and watered twice daily. After 13 days for pre and post-emergence, the test was evaluated visually for percentage phytotoxicity to the plant (where 100=total damage to plant; 0=no damage to plant).
(§2) Comparative herbicidal data is given below for certain exemplified compounds with 4-(prop-1-ynyl)-2,6-dimethylphenyl or 4-(chloroethynyl)-2,6-dimethylphenyl headgroups, compared to the corresponding compounds with either 4-ethynyl-2,6-dimethylphenyl or 2,4,6-trimethylphenyl headgroups, as follows. Comparative herbicidal data is also given below for certain exemplified compounds with 4-(prop-1-ynyl)-2-chloro-6-methoxyphenyl headgroups, compared to the corresponding compounds with 4-ethynyl-2-chloro-6-methoxyphenyl or 4-(but-1-ynyl)-2-chloro-6-methoxyphenyl or 4-methyl-2-chloro-6-methoxyphenyl or 2-chloro-6-methoxyphenyl headgroups, as follows.
(§3) Except where specified otherwise, the glasshouse screen for herbicidal activity is substantially the same as that presented in Biological Example 1A (Test 1A) hereinabove. The weed abbreviations are as defined in Biological Example 1A.

Setaria faberi (SETFA) [4] = experiment: as above; details: 312 h, read-out: Post-emergence herbicidal activities (percentage phytotoxicity) SETFA; for pest or weed control at 30 g/ha: 30 g/ha application rate
Description: as §1, §2, §3

[5] = system: Echinochloa crus-galli (ECHCG); experiment: as above; details: 312 h, read-out: Post-emergence herbicidal activities (percentage phytotoxicity) ECHCG; for pest or weed control at 30 g/ha: 30 g/ha application rate
Description: as §1, §2, §3

[6] = system: Alopecurus myosuroides (ALOMY); experiment: Test 1A glasshouse assay for herbicidal activity, post-emergence; details: 312 h, evaluated after 13 days, read-out: percentage phytotoxicity ALOMY
Description: as §1
(§4) Alopecurus myosuroides (ALOMY), Setaria faberi (SETFA), Echinochloa crus-galli (ECHCG), Solanum nigrum (SOLNI), Amaranthus retroflexus (AMARE), Ipomoea hederacea (IPOHE), and Abutilon theophasti Medik. (ABUTH, common English name “velvetleaf”). Of these, Alopecurus myosuroides (ALOMY), Setaria faberi (SETFA), and Echinochloa crus-galli (ECHCG) are grassy monocotyledonous weeds.

[7] = system: Abutilon theophasti Medik. (ABUTH); experiment: as above; details: 312 h, evaluated after 13 days, read-out: percentage phytotoxicity ABUTH
Description: as §1, §4

[8] = system: Amaranthus retroflexus (AMARE); experiment: as above; details: 312 h, evaluated after 13 days, read-out: percentage phytotoxicity AMARE
Description: as §1, §4

Setaria faberi (SETFA) [9] = experiment: as above; details: 312 h, evaluated after 13 days, read-out: percentage phytotoxicity SETFA
Description: as §1, §4

[10] = system: Echinochloa crus-galli (ECHCG); experiment: as above; details: 312 h, evaluated after 13 days, read-out: percentage phytotoxicity ECHCG
Description: as §1, §4

[11] = system: Alopecurus myosuroides (ALOMY); experiment: Test 1A glasshouse assay for herbicidal activity, pre-emergence; details: 312 h, 250 g/ha, evaluated after 13 days, read-out: percentage phytotoxicity ALOMY
Description: as §1, §4

[12] = system: Abutilon theophasti Medik. (ABUTH); experiment: as above; details: 312 h, 250 g/ha, evaluated after 13 days, read-out: percentage phytotoxicity ABUTH
Description: as §1, §4

[13] = system: Amaranthus retroflexus (AMARE); experiment: as above; details: 312 h, 250 g/ha, evaluated after 13 days, read-out: percentage phytotoxicity AMARE
Description: as §1, §4

Setaria faberi (SETFA) [14] = experiment: as above; details: 312 h, 250 g/ha, evaluated after 13 days, read-out: percentage phytotoxicity SETFA
Description: as §1, §4

[15] = system: Echinochloa crus-galli (ECHCG); experiment: as above; details: 312 h, 250 g/ha, evaluated after 13 days, read-out: percentage phytotoxicity ECHCG
Description: as §1, §4

Compound	pest or weed control at 30 g/ha [1]	pest or weed control at 30 g/ha [2]	pest or weed control at 30 g/ha [3]	pest or weed control at 30 g/ha (Setaria faberi (SETFA) [4])	pest or weed control at 30 g/ha [5]	pest or weed control at 250 g/ha [6]	pest or weed control at 250 g/ha [7]	pest or weed control at 250 g/ha [8]	pest or weed control at 250 g/ha (Setaria faberi (SETFA) [9])	pest or weed control at 250 g/ha [10]	pest or weed control at 250 g/ha [11]	pest or weed control at 250 g/ha [12]	pest or weed control at 250 g/ha [13]	pest or weed control at 250 g/ha (Setaria faberi (SETFA) [14])	pest or weed control at 250 g/ha [15]	other results
CSCCC1CC(=O)C(c2c(C)cc(C)cc2C)C(=O)C1 (centres unmarked) [Compound X-7, reference compound]	0%	0%	30%	20%	10%	–	–	–	–	–	–	–	–	–	–	pest or weed control at 8 g/ha ([1]; 8 g/ha application rate): 0%; pest or weed control at 8 g/ha ([2]; 8 g/ha application rate): 0%; pest or weed control at 8 g/ha ([3]; 8 g/ha application rate): 0%; pest or weed control at 8 g/ha (Setaria faberi (SETFA) [4]; 8 g/ha application rate): 0%; pest or weed control at 8 g/ha ([5]; 8 g/ha application rate): 0%
CSC(C)CC1CC(=O)C(c2c(C)cc(C)cc2C)C(=O)C1 (centres unmarked) [Compound X-8, reference compound]	0%	0%	70%	80%	70%	–	–	–	–	–	–	–	–	–	–	–
CC#Cc1cc(C)c(C2C(=O)CC(CC(C)SC)CC2=O)c(C)c1 (centres unmarked) [Compound A-24, 2-(2,6-Dimethyl-4-prop-1-ynyl-phenyl)-5-(2-methylsulfanylpropyl)cyclohexane-1,3-dione]	0%	0%	90%	100%	100%	100%	60%	60%	100%	100%	90%	20%	80%	100%	100%	pest or weed control at 30 g/ha ([6]; 30 g/ha): 90%; pest or weed control at 30 g/ha ([7]; 30 g/ha): 0%; pest or weed control at 30 g/ha ([8]; 30 g/ha): 0%; pest or weed control at 30 g/ha (Setaria faberi (SETFA) [9]; 30 g/ha): 100%; pest or weed control at 30 g/ha ([10]; 30 g/ha): 100%
CCC#Cc1cc(Cl)c(C2C(=O)C3CCC(C3)C2=O)c(OC)c1 (centres unmarked) [Compound B-4]	20%	0%	60%	70%	80%	100%	70%	30%	90%	100%	100%	10%	40%	70%	100%	–
